Laboratory results published in the NIST ThermoML archive (doi:10.1016/j.fluid.2018.05.005).
Numbers after ± are expanded uncertainties.

Tests used:
[1] = Crystal; DSC
[2] = Molar enthalpy of transition or fusion; conditions: Crystal; DSC

Triple point temperature [1]: 428.99 ± 1.9 K
Molar enthalpy of transition or fusion [2]: 5.86 ± 0.263 kcal/mol
SMILES: CC1(C)CCC2=C(O1)c1ccccc1C(=O)C2=O [3,4-dihydro-2,2-dimethyl-2H-naphtho[1,2-b]pyran-5,6-dione]
